# Source: patent US4364926A, “Novel alkaline protease M3 method for the preparation thereof and dental caries-prophylactic composition containing the same” (Dainippon Pharmaceutical Co., Ltd., priority 1980, dated 1982)
# Counter-ions that a name gives are not always drawn. Like-named read-outs stand apart in the source and are kept apart here.
# Test system: alkaline protease M3 from Streptomyces globisporus B-1829 strain (ATCC 21553)
# Test: Protease activity (casein hydrolysis) in the presence of additives
# Type: biochemical
# [1] = additive 10^-3 M, protease activity, no additive = 100
Structure (SMILES),Relative activity (%),Relative activity (%) [1] [%],also measured
O=C(O)CI [Iodoacetic acid],118,–,Effect by additive on activity (in words): substantially not inhibited; Inhibition of protease activity (in words): substantially not inhibited
O=C1O[C@H]([C@@H](O)CO)C(O)=C1O [L-Ascorbic acid],–,110,–
"O=C1CCC(=O)N1Br [NBS, N--Bromosuccinimide]",–,85,"Relative activity (%) (additive 10^-4 M, protease activity, no additive = 100): 0%; Inhibition of protease activity (in words) (additive in an amount of 10^-4 M): completely inhibited"
NNC(N)=O [Semicarbazide hydrochloride],116,–,–
O=C(O)CCC(=O)O [Succinic acid],–,113,–
NC(N)=S [Thiourea],119,–,–
